# From patent US20240009121A1, “PHARMACEUTICAL COMPOSITION CONTAINING NEUROACTIVE STEROID AND USE THEREOF” (Brii Biosciences, Inc., priority 2020, published 2024)
# Like-named read-outs stand apart in the source and are kept apart here.
# Tests used:
# [1] = Single IV infusion PK of brexanolone in rats; format: in vivo; conditions: male Sprague Dawley rat; single IV infusion 1.0 mg/kg over 30 minutes; mean
# Description: (§1) Following a single IV infusion in rats (1.0 mg/kg) and dogs (2.0 mg/kg) over 30 minutes, the PK parameters in Table 2 were obtained.
# (§2) In the rat and dog PK studies including brexanolone IV infusion and IM administrations, brexanolone was quantified in rat and dog plasma using a sensitive and specific analytical procedure. Analytes were separated by liquid chromatography (LC) and brexanolone was detected by positive mode electrospray tandem mass spectrometry (MS/MS). The lower limit of quantitation (LLOQ) was 1.0 to 3.0 ng/mL. In the GLP study, LLOQ was 1.0 ng/mL in the rat.
# (§3) Intravenous dosing of brexanolone was performed through a 30-min infusion via the jugular vein cannula (JVC) or a temporary percutaneous catheter placed into a lateral tail vein in rats, and via the cephalic vein in dogs. Different suspension formulations were also dosed intramuscularly into the rats and dogs in accordance with test facility standard operating procedures. At the designated time points, blood was collected via direct venipuncture of a cephalic or jugular vein in rats and via the cephalic or saphenous vein in dog. Blood was transferred into collection tubes containing K2EDTA anticoagulant and stored on ice until processed. Blood was processed for plasma by centrifugation. Plasma was then transferred into a 96-well container and stored in a freezer maintained at approximately −70° C. The quantitative analyses of the resulted plasma samples were conducted using a qualified LC-MS/MS method.
# Sprague Dawley rats = conditions: rat, cited from earlier work
# [2] = Single IV infusion PK of brexanolone in dogs; format: in vivo; conditions: male Beagle dog; single IV infusion 2.0 mg/kg over 30 minutes; mean
# Description: as §1, §2, §3
# [3] = dog, 14-day continuous IV infusion, 36 mg/kg/day, cited from earlier work
# [4] = 28-day continuous IV infusion, cited from earlier work
# dog [5] = conditions: cited from earlier work
# [6] = brexanolone IV at the MRHD of 90 μg/kg/h; cited from earlier work
# Beagle dogs = conditions: dog, cited from earlier work
# [7] = 28-day continuous IV infusion, cited from earlier work; remark: listed apart in the source
# dog [8] = conditions: single IV slow bolus, cited from earlier work
# [9] = rat, 14-day continuous IV infusion, 18 mg/kg/day, cited from earlier work
# rat = conditions: single IV slow bolus, cited from earlier work
# rats = conditions: rat, cited from earlier work
# [10] = 28-day continuous IV infusion, 10, 30, 60 mg/kg/day
# [11] = 5-day continuous IV infusion study
# [12] = 28-day continuous IV infusion, 12, 36, 72 mg/kg/day
substance,measurement,setting,value
"1-(3R,5S,8R,9S,10S,13S,14S,17S)-3-hydroxy-10,13-dimethylhexadecahydro-1H-cyclopenta[a]phenanthren-17-yl) ethan-1-one [brexanolone]",AUC0-inf,[1],177 ng·h/mL
same,AUC0-t,[1],175 ng·h/mL
same,MRTinf,[1],21.5 min
same,body weight gain compared to vehicle controls,"Sprague Dawley rats; females, 30 mg/kg/day, Day 7 to 28",138%
same,body weight gain compared to vehicle controls,"Sprague Dawley rats; females, 30 mg/kg/day, Day −1 to 7",160%
same,body weight gain compared to vehicle controls,"Sprague Dawley rats; females, 60 mg/kg/day, Day 7 to 28",123%
same,body weight gain compared to vehicle controls,"Sprague Dawley rats; females, 60 mg/kg/day, Day −1 to 7",193%
same,body weight gain compared to vehicle controls,"Sprague Dawley rats; males, 10 mg/kg/day, first 7 days",126%
same,body weight gain compared to vehicle controls,"Sprague Dawley rats; males, 30 mg/kg/day, first 7 days",126%
same,body weight gain compared to vehicle controls,"Sprague Dawley rats; males, 60 mg/kg/day, Day 7 to 28",71%
same,body weight gain compared to vehicle controls,"Sprague Dawley rats; males, 60 mg/kg/day, first 7 days",132%
same,exposure at NOAEL as multiple of the human exposure at the MRHD,Sprague Dawley rats; 60 mg/kg/day vs human 90 μg/kg/h,5 times
same,mortality,Sprague Dawley rats; [10],no test article or vehicle-related mortalities
same,test article related clinical observations,Sprague Dawley rats; [10],No test article related clinical observations were noted
same,NOAEL,Sprague Dawley rats; 28-day continuous IV infusion,60 mg/kg/day
same,AUC0-inf,[2],289 ng·h/mL
same,AUC0-t,[2],283 ng·h/mL
same,CL,[2],~7.22 L/h/kg
same,MRTinf,[2],26.5 min
same,T1/2,[2],~1.69 h
same,Vss,[2],~2.99 L/kg
same,AUC0-24h at NOAEL,[3]; females,3840 ng·h/mL
same,Cmax at NOAEL,[3]; females,210 ng/mL
same,AUC0-24h at NOAEL,[3]; males,3560 ng·h/mL
same,Cmax at NOAEL,[3]; males,201 ng/mL
same,AUC0-24 h (= AUC0-672 h/28),"[4]; rat F, 10 mg/kg/day",1410 ng·h/mL
same,Cmax,"[4]; rat F, 10 mg/kg/day",63.1 ng/mL
same,Css (= AUC0-672 h/672 h),"[4]; rat F, 10 mg/kg/day",58.8 ng/mL
same,AUC0-24 h (= AUC0-672 h/28),"[4]; rat F, 30 mg/kg/day",4320 ng·h/mL
same,Cmax,"[4]; rat F, 30 mg/kg/day",219 ng/mL
same,Css (= AUC0-672 h/672 h),"[4]; rat F, 30 mg/kg/day",180 ng/mL
same,AUC0-24 h (= AUC0-672 h/28),"[4]; rat F, 60 mg/kg/day",8110 ng·h/mL
same,Cmax,"[4]; rat F, 60 mg/kg/day",441 ng/mL
same,Css (= AUC0-672 h/672 h),"[4]; rat F, 60 mg/kg/day",338 ng/mL
same,AUC0-24 h (= AUC0-672 h/28),"[4]; rat M, 10 mg/kg/day",1790 ng·h/mL
same,Cmax,"[4]; rat M, 10 mg/kg/day",93.8 ng/mL
same,Css (= AUC0-672 h/672 h),"[4]; rat M, 10 mg/kg/day",74.4 ng/mL
same,AUC0-24 h (= AUC0-672 h/28),"[4]; rat M, 30 mg/kg/day",4890 ng·h/mL
same,Cmax,"[4]; rat M, 30 mg/kg/day",233 ng/mL
same,Css (= AUC0-672 h/672 h),"[4]; rat M, 30 mg/kg/day",204 ng/mL
same,AUC0-24 h (= AUC0-672 h/28),"[4]; rat M, 60 mg/kg/day",9960 ng·h/mL
same,Cmax,"[4]; rat M, 60 mg/kg/day",464 ng/mL
same,Css (= AUC0-672 h/672 h),"[4]; rat M, 60 mg/kg/day",415 ng/mL
same,MTD,dog [5]; [11],60 mg/kg/day
same,NOAEL,"dog [5]; 14-day continuous IV infusion study, convulsion in one female at 72 mg/kg/day",36 mg/kg/day
same,human exposure AUC0-24h,[6],1800 ng·h/mL
same,human exposure Css,[6],74.3 ng/mL
same,exposure at NOAEL relative to the human exposure at the MRHD,Beagle dogs; 12 mg/kg/day vs human 90 μg/kg/h,equivalent to the human exposure
same,mortality,Beagle dogs; [12],no test article- or vehicle-related mortalities
same,test article-related clinical signs,Beagle dogs; [12],limited to one male dosed with 36 mg/kg which had a convulsion occurring 4 days after completing the 28-day infusion
same,NOAEL,"Beagle dogs; 28-day continuous IV infusion, based on convulsion in one 36 mg/kg dog and SBECD-related renal tubular vacuolation at ≥36 mg/kg",12 mg/kg/day
same,AUC0-24 h (= AUC0-672 h/28),"[7]; dog F, 12 mg/kg/day",1820 ng·h/mL
same,Cmax,"[7]; dog F, 12 mg/kg/day",97.3 ng/mL
same,Css (= AUC0-672 h/672 h),"[7]; dog F, 12 mg/kg/day",75.9 ng/mL
same,AUC0-24 h (= AUC0-672 h/28),"[7]; dog F, 36 mg/kg/day",6960 ng·h/mL
same,Cmax,"[7]; dog F, 36 mg/kg/day",338 ng/mL
same,Css (= AUC0-672 h/672 h),"[7]; dog F, 36 mg/kg/day",290 ng/mL
same,AUC0-24 h (= AUC0-672 h/28),"[7]; dog F, 72 mg/kg/day",11300 ng·h/mL
same,Cmax,"[7]; dog F, 72 mg/kg/day",571 ng/mL
same,Css (= AUC0-672 h/672 h),"[7]; dog F, 72 mg/kg/day",471 ng/mL
same,AUC0-24 h (= AUC0-672 h/28),"[7]; dog M, 12 mg/kg/day",1680 ng·h/mL
same,Cmax,"[7]; dog M, 12 mg/kg/day",89.3 ng/mL
same,Css (= AUC0-672 h/672 h),"[7]; dog M, 12 mg/kg/day",69.9 ng/mL
same,AUC0-24 h (= AUC0-672 h/28),"[7]; dog M, 36 mg/kg/day",5760 ng·h/mL
same,Cmax,"[7]; dog M, 36 mg/kg/day",310 ng/mL
same,Css (= AUC0-672 h/672 h),"[7]; dog M, 36 mg/kg/day",240 ng/mL
same,AUC0-24 h (= AUC0-672 h/28),"[7]; dog M, 72 mg/kg/day",12900 ng·h/mL
same,Cmax,"[7]; dog M, 72 mg/kg/day",708 ng/mL
same,Css (= AUC0-672 h/672 h),"[7]; dog M, 72 mg/kg/day",538 ng/mL
same,single bolus dose at which rapid anesthesia (within 1 minute) was observed,dog [8]; doses ≤30 mg/kg,≥ 7.5 mg/kg
same,MTD for slow bolus administration,dog [8]; irregular breathing in 1 of 4 dogs at 30 mg/kg,20 mg/kg
same,AUC0 24 h at NOAEL,[9]; females,1790 ng·h/mL
same,Cmax at NOAEL,[9]; females,111 ng/mL
same,AUC0 24 h at NOAEL,[9]; males,2910 ng·h/mL
same,Cmax at NOAEL,[9]; males,196 ng/mL
same,single bolus dose at which rapid anesthesia (within 1 minute) was observed,rat; doses ≤50 mg/kg,≥ 10 mg/kg
same,maximum tolerated dose (MTD) for slow bolus administration,rat; shallow respiration and death of one male at 50 mg/kg,30 mg/kg
same,MTD,rats; [11],120 mg/kg/day
same,NOAEL for poor clinical condition resulting in premature euthanasia,rats; 14-day continuous IV infusion study,18 mg/kg/day
